Results taken from ChEMBL document CHEMBL1201862, “PubChem BioAssay data set” (2004).
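The compound was tested at five concentrations on cells cultured in 96-well plates, with a 48-hour exposure period. Abbreviation: GI50, concentration required for 50% inhibition of growth.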 Calls of active or inactive are those of the source. No stated cut-off is given here; in the data, active = GI50 up to about 1.1 µM and inactive = higher.

Columns and labels:
Assay in all cases: growth of human tumour cells (NCI), 48 h
U-251 = system: U-251
MDA-MB-435 = system: MDA-MB-435
IGROV-1 = system: IGROV-1
UACC-62 = system: UACC-62
SF-295 = system: SF-295
SNB-75 = system: SNB-75
HL-60 = system: HL-60
SR = system: SR
HCC 2998 = system: HCC 2998
CAKI-1 = system: CAKI-1
SK-MEL-28 = system: SK-MEL-28
OVCAR-8 = system: OVCAR-8
PC-3 = system: PC-3
NCI-H460 = system: NCI-H460
MOLT-4 = system: MOLT-4
SN12C = system: SN12C
TK-10 = system: TK-10
SF-268 = system: SF-268
SK-OV-3 = system: SK-OV-3

Row | Compound | GI50 (U-251) | GI50 (MDA-MB-435) | GI50 (IGROV-1) | GI50 (UACC-62) | GI50 (SF-295) | GI50 (SNB-75) | GI50 (HL-60) | GI50 (SR) | GI50 (HCC 2998) | GI50 (CAKI-1) | GI50 (SK-MEL-28) | GI50 (OVCAR-8) | GI50 (PC-3) | GI50 (NCI-H460) | GI50 (MOLT-4) | GI50 (SN12C) | GI50 (TK-10) | GI50 (SF-268) | GI50 (SK-OV-3)
1 | c1ccc2c(c1)[n-]n1c3ccc4nonc4c3n[n+]21 | > 100 µM (inactive) | > 100 µM (inactive) | > 100 µM (inactive) | > 100 µM (inactive) | > 100 µM (inactive) | 56.1 µM (inactive) | > 100 µM (inactive) | > 100 µM (inactive) | > 100 µM (inactive) | > 100 µM (inactive) | > 100 µM (inactive) | > 100 µM (inactive) | > 100 µM (inactive) | 93.3 µM (inactive) | > 100 µM (inactive) | > 100 µM (inactive) | – | – | –
2 | O=C(NNC(c1ccccc1)C(F)(F)F)c1ccncc1 (stereo not given) | > 100 µM (inactive) | > 100 µM (inactive) | > 100 µM (inactive) | – | > 100 µM (inactive) | > 100 µM (inactive) | > 100 µM (inactive) | > 100 µM (inactive) | > 100 µM (inactive) | > 100 µM (inactive) | > 100 µM (inactive) | > 100 µM (inactive) | > 100 µM (inactive) | > 100 µM (inactive) | > 100 µM (inactive) | > 100 µM (inactive) | > 100 µM (inactive) | > 100 µM (inactive) | –
3 | COC1OC(Cn2c(C)nc(Br)c2Br)C(O)C(O)C1O (stereo not given) | > 100 µM (inactive) | > 100 µM (inactive) | > 100 µM (inactive) | > 100 µM (inactive) | > 100 µM (inactive) | > 100 µM (inactive) | – | > 10 µM (inactive) | > 100 µM (inactive) | > 100 µM (inactive) | > 100 µM (inactive) | > 100 µM (inactive) | > 100 µM (inactive) | > 100 µM (inactive) | > 100 µM (inactive) | – | – | – | > 100 µM (inactive)
4 | COc1c(Cl)ccc(Cl)c1C(=O)NNC(=O)c1c(Cl)c(Cl)c(Cl)c(Cl)c1-c1nc2cc(C(=O)c3ccccc3)ccc2[nH]1 | 53.2 µM (inactive) | 42.9 µM (inactive) | 31 µM (inactive) | – | 34.9 µM (inactive) | > 100 µM (inactive) | 50.5 µM (inactive) | 37.2 µM (inactive) | – | 95.3 µM (inactive) | 84.7 µM (inactive) | 72.9 µM (inactive) | 37.8 µM (inactive) | – | 20.6 µM (inactive) | 70.8 µM (inactive) | 72.3 µM (inactive) | 34.3 µM (inactive) | > 100 µM (inactive)
5 | c1csc(-c2ccc(-c3cccs3)c3nsnc23)c1 | 30.2 µM (inactive) | 31.4 µM (inactive) | 0.875 µM (active) | > 100 µM (inactive) | 42.3 µM (inactive) | 19.7 µM (inactive) | 5.4 µM (inactive) | 6.47 µM (inactive) | – | > 59.8 µM (inactive) | 20.2 µM (inactive) | 19.7 µM (inactive) | > 54 µM (inactive) | 21.1 µM (inactive) | 8.89 µM (inactive) | > 60.3 µM (inactive) | 7.64 µM (inactive) | 33.7 µM (inactive) | > 49.7 µM (inactive)
6 | CN(CCC(=O)O)C1=Nc2ccc(Cl)cc2C(c2ccccc2)=[N+]([O-])C1 | > 100 µM (inactive) | 86.1 µM (inactive) | > 100 µM (inactive) | > 100 µM (inactive) | > 100 µM (inactive) | > 100 µM (inactive) | > 100 µM (inactive) | > 100 µM (inactive) | – | 78.5 µM (inactive) | > 100 µM (inactive) | > 100 µM (inactive) | > 100 µM (inactive) | > 100 µM (inactive) | > 100 µM (inactive) | > 100 µM (inactive) | > 100 µM (inactive) | > 100 µM (inactive) | > 100 µM (inactive)
